Where two headings read alike, the source gives them in different places.
Key:
[1] = system: human peripheral neutrophils; settings: FIG. 2
Description: (§1) For these studies, a standard Neuroprobe chemotaxis system (Gaithersburg, Md.) and human peripheral neutrophils as indicator cells were used.

[2] = system: Nourin; test: Neutrophil chemotaxis induced by Nourin; format: cell-based; settings: data not provided in graphical form
[3] = organic solvents administered parenterally; cited from earlier work
[4] = system: human peripheral neutrophils; settings: FIG. 3
Description: as §1

[5] = system: Nourin; test: Chemotactic activity of Nourin in supernatants of H1N1 (PR8) infected MDCK cells; format: cell-based; settings: 5×10^−6 M Nourexin-4, all time points 1-24 hours, FIG. 5
[6] = system: Nourin; test: Chemotactic activity in serum of H1N1 (WSN) influenza infected mice, human PMNs as indicator cells; format: cell-based, mouse; settings: 5×10^−6 M Nourexin-4; serum diluted 1/7, 6 hours post H1N1 (WSN) infection; FIG. 6
[7] = Water solubility of cyclocreatine; format: physicochemical; settings: physiologically relevant zwitterion salt
Protocol: Therefore, sufficient drug is available in the gut lumen due to good solubility, but an absorptive transporter will be necessary to overcome the poor permeability characteristics of this compound. For effective therapy, it is necessary to deliver cyclocreatine effectively in sufficient quantities into the systemic blood stream. […] Moreover, the in vivo fate of a drug given by a particular administration route is determined by both the physicochemical properties of drug and the anatomical and physiological characteristics of the body. Most conventional drugs, once reaching the blood circulation, distribute freely throughout the body and show relatively even tissue distribution due to their low molecular weight.

With “formyl-Methionine-Leucine-Phenylalanine [f-MLP]” the “neutrophil chemotactic activity induced in vitro” value [1] was “strong neutrophil chemotactic activity”.
In the case of t-Boc-FLFLF [Nourexin-1], the “inhibition of neutrophil chemotaxis induced by Nourin” value [2] is reported as “significantly inhibited”.
In the case of `C[S+](C)[O-]` [DMSO, dimethylsulfoxide], the LD50 [3] is listed as 5.1%.
For `CC(O)CO` (stereo not shown) [propylene glycol], the LD50 [3] is given as 5.7%.
With “phenol-soluble modulin 3a peptide [PSM3a, reference compound]” the “neutrophil chemotactic activity induced in vitro” value [4] was “strong neutrophil chemotactic activity”.
With `C/C=C/C[C@@H](C)[C@@H](O)[C@H]1C(=O)N[C@@H](CC)C(=O)N(C)CC(=O)N(C)[C@@H](CC(C)C)C(=O)N[C@@H](C(C)C)C(=O)N(C)[C@@H](CC(C)C)C(=O)N[C@@H](C)C(=O)N[C@H](C)C(=O)N(C)[C@@H](CC(C)C)C(=O)N(C)[C@@H](CC(C)C)C(=O)N(C)[C@H](C(C)C)C(=O)N1C` [Nourexin-4, Cyclosporine H] the “inhibition of neutrophil chemotaxis induced by S. aureus-derived PSM3a” value ([4]; Nourexin-4 at 5×10^−4 M) was “completely blocked”, the “inhibition of neutrophil chemotaxis induced by S. aureus-derived PSM3a” value ([4]; Nourexin-4 at 5×10^−5 M) was “partially blocked” and the “inhibition of chemotactic activity of H1N1 infected MDCK supernatant” value ([5]; 1/10 diluted supernatant) was “dramatic loss of chemotactic activity”. The “inhibition of chemotactic activity of H1N1 infected MDCK supernatant” value ([5]; undiluted supernatant) was “dramatic loss of chemotactic activity”, the “inhibition of neutrophil chemotaxis induced by Nourin” value [2] was “significantly inhibited” and the “inhibition of virus induced LCF activity in mouse serum” value [6] was “majority of this virus induced LCF activity is clearly inhibited”.
For `NC1=NCCN1CC(=O)O` [cyclocreatine], the water solubility [7] was “relatively highly water-soluble”.
For `CCO` [ethanol], the LD50 [3] is listed as 21%.

Source: patent US8333987B2 (priority 2008, dated 2012)
